# Assay results: US9708314B2, “Heterocyclic amide compound” (NISSAN CHEMICAL INDUSTRIES, LTD., priority 2013, dated 2017)
# Columns and labels:
# Assay type in all cases: in vivo
# Veronica persica = test: Test Example 4: herbicidal effect by application to foliage (diluvial soil, plastic box); conditions: 320 g/ha; for R (Veronica persica) herbicidal effect grade: foliage application; for herbicidal effect, R (Veronica persica): application to foliage
# Method in brief: (§1)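 Scores run from 0 (herbicidal ratio ≤5%) to 5 (≥90%, almost fully withered) and were assessed three weeks after foliar spraying. Seedlings had been raised for 14 days at 25-30° C in sterilized diluvial soil before treatment, with the emulsion diluted in water to the stated g/ha dose.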
# Galium spurium = test: as above; conditions: 320 g/ha; for Q (Galium spurium) herbicidal effect grade: foliage application; for herbicidal effect, Q (Galium spurium): application to foliage
# Method in brief: as §1
# Stellaria media = test: as above; conditions: 320 g/ha; for P (Stellaria media) herbicidal effect grade: foliage application; for herbicidal effect, P (Stellaria media): application to foliage
# Method in brief: as §1
# Setaria viridis = test: as above; conditions: 320 g/ha; for G (Setaria viridis) herbicidal effect grade: foliage application; for herbicidal effect, G (Setaria viridis): application to foliage
# Method in brief: as §1
# Digitaria ciliaris = test: as above; conditions: 320 g/ha; for F (Digitaria ciliaris) herbicidal effect grade: foliage application; for herbicidal effect, F (Digitaria ciliaris): application to foliage
# Method in brief: as §1
# Alopecurus myosuroides = test: as above; conditions: 320 g/ha; for J (Alopecurus myosuroides) herbicidal effect grade: foliage application; for herbicidal effect, J (Alopecurus myosuroides): application to foliage
# Method in brief: as §1
# Cyperus difformis = test: Test Example 3: herbicidal effect by application to foliage (Wagner pot, water depth 0.1-0.5 cm); conditions: Nineteenth Table; application to foliage; application herbicide amount 320 g/ha
# Method in brief: (§2)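 Plants are raised 14 days from seed in flooded-surface Wagner pots at 25–30 °C, sprayed on stems and leaves with diluted emulsion at a predetermined rate, and rated three weeks on using a 0–5 herbicidal-ratio scale (5 ≥90%).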
# Leptochloa chinensis = test: as above; conditions: Nineteenth Table; application to foliage; application herbicide amount 320 g/ha
# Method in brief: as §2
# [1] = system: Echinochloa crus-galli var. crus-galli; test: as above; conditions: Nineteenth Table; application to foliage; application herbicide amount 320 g/ha
# Method in brief: as §2
SMILES,R (Veronica persica) herbicidal effect grade (Veronica persica),Q (Galium spurium) herbicidal effect grade (Galium spurium),P (Stellaria media) herbicidal effect grade (Stellaria media),G (Setaria viridis) herbicidal effect grade (Setaria viridis),F (Digitaria ciliaris) herbicidal effect grade (Digitaria ciliaris),J (Alopecurus myosuroides) herbicidal effect grade (Alopecurus myosuroides),E (herbicidal effect grade) (Cyperus difformis),D (herbicidal effect grade) (Leptochloa chinensis),H (herbicidal effect grade) [1],"herbicidal effect, R (Veronica persica) (Veronica persica)","herbicidal effect, Q (Galium spurium) (Galium spurium)","herbicidal effect, P (Stellaria media) (Stellaria media)","herbicidal effect, G (Setaria viridis) (Setaria viridis)","herbicidal effect, F (Digitaria ciliaris) (Digitaria ciliaris)","herbicidal effect, J (Alopecurus myosuroides) (Alopecurus myosuroides)"
CC(C)CSc1nnc2c(C(=O)Nc3nnnn3C)ccc(C(F)(F)F)n12 [2-071],5 (Herbicidal ratio of 90% or more (almost completely withered)),3 (Herbicidal ratio of 40% or more and less than 70%),5 (Herbicidal ratio of 90% or more (almost completely withered)),4 (Herbicidal ratio of 70% or more and less than 90%),5 (Herbicidal ratio of 90% or more (almost completely withered)),1 (Herbicidal ratio of 5% or more and less than 20%),5 (Herbicidal ratio of 90% or more (almost completely withered)),5 (Herbicidal ratio of 90% or more (almost completely withered)),4 (Herbicidal ratio of 70% or more and less than 90%),–,–,–,–,–,–
CCC(C)Sc1nnc2c(C(=O)Nc3nnnn3C)ccc(C(F)(F)F)n12 (stereo not drawn) [2-072],5 (Herbicidal ratio of 90% or more (almost completely withered)),3 (Herbicidal ratio of 40% or more and less than 70%),5 (Herbicidal ratio of 90% or more (almost completely withered)),5 (Herbicidal ratio of 90% or more (almost completely withered)),5 (Herbicidal ratio of 90% or more (almost completely withered)),1 (Herbicidal ratio of 5% or more and less than 20%),5 (Herbicidal ratio of 90% or more (almost completely withered)),5 (Herbicidal ratio of 90% or more (almost completely withered)),4 (Herbicidal ratio of 70% or more and less than 90%),–,–,–,–,–,–
CC(C)c1nnc2c(C(=O)Nc3nnnn3-c3ccccc3)ccc(C(F)(F)F)n12 [2-073],2 (Herbicidal ratio of 20% or more and less than 40%),0 (Herbicidal ratio of 5% or less (almost no effect)),4 (Herbicidal ratio of 70% or more and less than 90%),1 (Herbicidal ratio of 5% or more and less than 20%),1 (Herbicidal ratio of 5% or more and less than 20%),0 (Herbicidal ratio of 5% or less (almost no effect)),5 (Herbicidal ratio of 90% or more (almost completely withered)),3 (Herbicidal ratio of 40% or more and less than 70%),4 (Herbicidal ratio of 70% or more and less than 90%),–,–,–,–,–,–
COCCNc1nnc2c(C(=O)Nc3nnnn3C)ccc(C(F)(F)F)n12 [2-074],5 (Herbicidal ratio of 90% or more (almost completely withered)),3 (Herbicidal ratio of 40% or more and less than 70%),4 (Herbicidal ratio of 70% or more and less than 90%),4 (Herbicidal ratio of 70% or more and less than 90%),5 (Herbicidal ratio of 90% or more (almost completely withered)),3 (Herbicidal ratio of 40% or more and less than 70%),4 (Herbicidal ratio of 70% or more and less than 90%),5 (Herbicidal ratio of 90% or more (almost completely withered)),5 (Herbicidal ratio of 90% or more (almost completely withered)),–,–,–,–,–,–
Cn1nnnc1NC(=O)c1ccc(C(F)(F)F)n2c(N3CCOCC3)nnc12 [2-075],–,–,–,–,–,–,5 (Herbicidal ratio of 90% or more (almost completely withered)),5 (Herbicidal ratio of 90% or more (almost completely withered)),5 (Herbicidal ratio of 90% or more (almost completely withered)),5 (Herbicidal ratio of 90% or more (almost completely withered)),4 (Herbicidal ratio of 70% or more and less than 90%),5 (Herbicidal ratio of 90% or more (almost completely withered)),5 (Herbicidal ratio of 90% or more (almost completely withered)),5 (Herbicidal ratio of 90% or more (almost completely withered)),4 (Herbicidal ratio of 70% or more and less than 90%)
Cn1nnnc1NC(=O)c1ccc(C(F)(F)F)n2c(SCc3ccccc3)nnc12 [2-076],–,–,–,–,–,–,4 (Herbicidal ratio of 70% or more and less than 90%),4 (Herbicidal ratio of 70% or more and less than 90%),5 (Herbicidal ratio of 90% or more (almost completely withered)),5 (Herbicidal ratio of 90% or more (almost completely withered)),3 (Herbicidal ratio of 40% or more and less than 70%),5 (Herbicidal ratio of 90% or more (almost completely withered)),3 (Herbicidal ratio of 40% or more and less than 70%),3 (Herbicidal ratio of 40% or more and less than 70%),1 (Herbicidal ratio of 5% or more and less than 20%)
COc1ccc(CSc2nnc3c(C(=O)Nc4nnnn4C)ccc(C(F)(F)F)n23)cc1 [2-077],–,–,–,–,–,–,3 (Herbicidal ratio of 40% or more and less than 70%),4 (Herbicidal ratio of 70% or more and less than 90%),2 (Herbicidal ratio of 20% or more and less than 40%),3 (Herbicidal ratio of 40% or more and less than 70%),3 (Herbicidal ratio of 40% or more and less than 70%),4 (Herbicidal ratio of 70% or more and less than 90%),2 (Herbicidal ratio of 20% or more and less than 40%),4 (Herbicidal ratio of 70% or more and less than 90%),0 (Herbicidal ratio of 5% or less (almost no effect))
Cn1nnnc1NC(=O)c1ccc(C(F)(F)F)n2c(N3CCSCC3)nnc12 [2-078],–,–,–,–,–,–,3 (Herbicidal ratio of 40% or more and less than 70%),5 (Herbicidal ratio of 90% or more (almost completely withered)),5 (Herbicidal ratio of 90% or more (almost completely withered)),5 (Herbicidal ratio of 90% or more (almost completely withered)),4 (Herbicidal ratio of 70% or more and less than 90%),5 (Herbicidal ratio of 90% or more (almost completely withered)),5 (Herbicidal ratio of 90% or more (almost completely withered)),5 (Herbicidal ratio of 90% or more (almost completely withered)),4 (Herbicidal ratio of 70% or more and less than 90%)
COCCN(C)c1nnc2c(C(=O)Nc3nnnn3C)ccc(C(F)(F)F)n12 [2-079],–,–,–,–,–,–,5 (Herbicidal ratio of 90% or more (almost completely withered)),5 (Herbicidal ratio of 90% or more (almost completely withered)),5 (Herbicidal ratio of 90% or more (almost completely withered)),5 (Herbicidal ratio of 90% or more (almost completely withered)),4 (Herbicidal ratio of 70% or more and less than 90%),5 (Herbicidal ratio of 90% or more (almost completely withered)),5 (Herbicidal ratio of 90% or more (almost completely withered)),5 (Herbicidal ratio of 90% or more (almost completely withered)),4 (Herbicidal ratio of 70% or more and less than 90%)
CSCCNc1nnc2c(C(=O)Nc3nnnn3C)ccc(C(F)(F)F)n12 [2-080],–,–,–,–,–,–,5 (Herbicidal ratio of 90% or more (almost completely withered)),5 (Herbicidal ratio of 90% or more (almost completely withered)),4 (Herbicidal ratio of 70% or more and less than 90%),5 (Herbicidal ratio of 90% or more (almost completely withered)),4 (Herbicidal ratio of 70% or more and less than 90%),4 (Herbicidal ratio of 70% or more and less than 90%),3 (Herbicidal ratio of 40% or more and less than 70%),5 (Herbicidal ratio of 90% or more (almost completely withered)),1 (Herbicidal ratio of 5% or more and less than 20%)
